Patent US20040214897A1, “Uses for 2-amino-2-propane-1,3-diols” (priority 2001, published 2004)

Tests used:
[1] = tested on: peripheral blood lymphocytes (PBL); details: background statement; cited from earlier work
[2] = tested on: yeast strains JK9-3dα, MH272-1da and MH272-1da/α; assay: Yeast growth on media containing the compound, compared with medium without compound; type: cell-based, Saccharomyces Cerevisie; details: for antifungal activity on Saccharomyces Cerevisie: general statement
Protocol: (§1) The compound, e.g. FTY720, is dissolved in distilled water to be 10 mM, the resulting stock solution is kept at 4° C. and diluted to the appropriated concentrations with medium used for yeast culture. Standard laboratory yeast strain in this case derivatives of JK9-3d (a, alpha and diploid) are plated on to media containing the varying concentrations of the compound to be tested and their growth are compared to that in medium without the compound. Cultivation and maintenance of cells are carried out in YEPD medium (Difco) or synthetic medium (SD). The growth of both yeast strains JK9-3dα, MH272-1da and MH272-1da/α is inhibited by a compound of formula I, e.g. FTY720, at 30 μM in the YPED solid medium at 30° C. or in minimal medium at 19° C.

[3] = tested on: prototrophic derivatives of JK9-3dα; assay: Growth sensitivity of prototrophic derivatives of JK9-3dα to FTY720; type: cell-based, Saccharomyces Cerevisie
Protocol: as §1, with “(SD).” for “(SD). The growth of both yeast strains JK9-3dα, MH272-1da and MH272-1da/α is inhibited by a compound of formula I, e.g. FTY720, at 30 μM in the YPED solid medium at 30° C. or in minimal medium at 19° C.”
If so, yeast that are able to synthesize amino acids might have a growth advantage in the presence of FTY720 compared with isogenic auxotrophic yeast that require amino acid import from the medium to grow. Therefore, the influence of nutrient auxotrophies present in JK9-3dα (trp1 his4 leu2 ura3), which are used to identify target molecules of FTY720, on the sensitivity to this compound is tested. In contrast to the parental auxotrophic strain, fully prototrophic TRP1 HIS4 LEU2 URA3 derivative of JK9-3dα is resistant to 30 μM of FTY720. […] It therefore seems that the molecular targets and pathways other than that of 30 μM are involved in the effects of 100 μM of FTY720. Then, in order to identify which nutrient transport is inhibited by 30 μM of FTY720, prototrophic strain for each nutrient are constructed in JK9-3dα.

Rsp5 mutant yeast = assay: Sensitivity of Rsp5 mutant to FTY720; type: cell-based, Saccharomyces Cerevisie; details: 30 μM
Protocol: as §1, with “(SD).” for “(SD). The growth of both yeast strains JK9-3dα, MH272-1da and MH272-1da/α is inhibited by a compound of formula I, e.g. FTY720, at 30 μM in the YPED solid medium at 30° C. or in minimal medium at 19° C.”
In order to clarify the role of the ubiquitin pathway in FTY720 action, the sensitivity of Rsp5 (Bul1 binding ubiquitin ligase) mutant to FTY720 is tested. Rsp5 mutant, in which Rsp5 expression level is reduced to less than 10% of wild-type due to the Ty1 transposed insertion in the promoter, is used in this study, since the complete disruption of Rsp5 gene is lethal. This Rsp5 mutant is resistant to 30 μM of FTY720 like Bul1 disrupted-yeast.

JK9-3dα transformants = assay: FTY720 resistance of JK9-3dα transformants carrying plasmid-borne genes; type: cell-based, Saccharomyces Cerevisie
Source text: If the growth sensitivity of these yeast strains is due to inhibition of specific functional protein targets in the cells, such inhibition could be relieved by overexpressing such a function through introduction of multiple genetic copies of such function. Accordingly the FTY720 sensitive strain JK9-3dα has been transformed with yeast genomic DNA libraries cloned in high copy plasmid (2 μm) URA3 selectable using Yeast Transformation System (Clontech). FTY720-resistant transformants are selected on synthetic medium lacking uracil in the presence of 30 μM of FTY720. The total number of URA3+transformants is >20,000. The first selection Is performed at 19° C. because even the parent yeast strain JK9-3dα is resistant to FTY720 in synthetic medium at 30° C. After the first selection for resistance, FTY720-resistant growth phenotype of transformants is reconfirmed by restreaking individual colonies on to medium with the compound. Plasmid which conferred resistance to FTY720 are recovered according to standard methods, amplified in E. coli and reintroduced into JK9-3da for the confirmation of FTY720 resistance. The DNA fragments which conferred FTY720 resistance are isolated to determine sequence of both terminii of insert DNA and the DNA sequence is compared with Saccharomyces Genome Database. Then, the responsible single genes for the FTY720 resistance are further identified from the DNA fragments due to their common presence in different fragments and by using specific restriction enzymes to subclone them into yeast plasmid vector as shorter fragments (Genes Vap1, UBP5, UBP11 and Caj1 are identified by this method).
From each fragment or resistance plasmid, single responsible genes, which overcome the anti-fungal effects of this compound at the increased copy number, are identified by subcloning using restriction enzymes. One is amino acid transporter VAP1, the others are a putative deubiquitinating enzyme UBP11 and UBP5. The last one is CAJ1 (heat shock protein).
The glutamine transporter GNP1 gene (38) is PCR amplified out of this fragment derived from the FTY720 resistant mutant or parent wild-type genomic DNA, then cloned into the same plasmid vector pRS416.
JK9-3dα wild-type cells are transformed with the yeast genomic DNA library constructed from FTY720 resistant dominant mutant in the low-copy-number vector pRS416. FTY720-resistant transformants are selected in SD medium in the presence of 30 μM of FTY720 as mentioned above. Plasmid inserts are sequenced and gene is identified as GNP1.

Bul1-disrupted yeast = assay: Sensitivity of gene-disrupted yeast strains to FTY720; type: cell-based, Saccharomyces Cerevisie
Protocol: as §1, with “(SD).” for “(SD). The growth of both yeast strains JK9-3dα, MH272-1da and MH272-1da/α is inhibited by a compound of formula I, e.g. FTY720, at 30 μM in the YPED solid medium at 30° C. or in minimal medium at 19° C.”
Only one genomic DNA fragment in pRS416 confers sensitivity to FTY720. This DNA contains 4 intact genes (NRC1, Bul1, RCE1, DSK2). […] Intact Bul1 gene in low-copy-number plasmid confers sensitvity to FTY720 in the resistant recessive mutants, implying that the mutation happens in Bul1 gene in the recessive mutant yeast.

yeast cells = details: cited from earlier work
several yeast strains = details: background statement; cited from earlier work

NC(CO)(CO)CCc1ccc(C(=O)CCCCc2ccccc2)cc1 [Compound Y, 2-amino-2-{2-[4-(1-oxo-5-phenylpentyl)phenyl]ethyl}propane-1,3-diol]
peripheral blood lymphocytes (PBL) in vivo [1]: rapid and marked reduction
antifungal activity on Saccharomyces Cerevisie [2]: exhibits an antifungal activity

CCCCCCCCc1ccc(CCC(N)(CO)CO)cc1 [FTY720, 2-Amino-2-[2-(4-octylphenyl)ethyl]propane-1,3-diol]
sensitivity of fully prototrophic TRP1 HIS4 LEU2 URA3 derivative of JK9-3dα ([3]; 30 μM): resistant
sensitivity of single TRP1, HIS4, LEU2 or URA3 prototrophic strains ([3]; 30 μM, JK9-3dα background): Neither of each TRP1, HIS4, LEU2 or URA3 prototrophic strain is resistant
sensitivity of strain with both TRP1 and LEU2 ([3]; 30 μM, JK9-3dα background): sufficient to confer resistance
sensitivity of prototrophic yeast ([3]; 100 μM): still sensitive
sensitivity of Rsp5 mutant (Rsp5 expression less than 10% of wild-type) (Rsp5 mutant yeast): resistant
anti-fungal effect with wild type TAT2 gene in low-copy number-plasmid (JK9-3dα transformants): overcomes the anti-fungal effects
growth-inhibitory effect with VAP1, UBP11, UBP5 or CAJ1 in high-copy-number plasmid (JK9-3dα transformants; 30 μM, JK9-3dα): overcome the growth-inhibitory effects
anti-fungal effect with mutant-derived GNP1 in low-copy-number plasmid (JK9-3dα transformants; 30 μM, JK9-3dα transformants, pRS416): confers resistance
growth inhibition with multiple copies of VAP1 (JK9-3dα transformants; 100 μM): fail to overcome the growth inhibition
anti-fungal effect with wild-type GNP1 gene in low-copy-number plasmid (JK9-3dα transformants; JK9-3dα transformants, pRS416): not inhibited
anti-fungal effect with VAP1 (and TAP2) in low-copy-number plasmid (JK9-3dα transformants; genes from mutant-derived and wild-type genomic DNA libraries): confer FTY720 resistance
sensitivity of Bul1-disrupted yeast after introduction of Bul1 gene in low-copy-number plasmid pRS416 (Bul1-disrupted yeast): reverses the phenotype from resistance to sensitivity
sensitivity of Bul1-disrupted yeast (Bul1-disrupted yeast; 30 μM): confers resistance
peripheral blood lymphocytes (PBL) in vivo [1]: rapid and marked reduction
growth of yeast strains JK9-3dα, MH272-1da and MH272-1da/α ([2]; 30 μM, YPED solid medium at 30° C. or minimal medium at 19° C.): inhibited
antifungal activity on Saccharomyces Cerevisie [2]: exhibits an antifungal activity
sensitivity of parent yeast strain JK9-3dα ([2]; synthetic medium at 30° C.): resistant

CCCCCCCCCCCCCC[C@@H](O)[C@@H](O)[C@@H](N)CO [PHS, phytoshingosine]
tryptophan uptake (yeast cells): diminishes tryptophan uptake

cyclosporin A [CsA]
growth of several yeast strains (several yeast strains): potently inhibit
